Some test systems named below: MOLT-4 leukemia; M14 melanoma; SK-MEL-5 melanoma; NCI-H226 lung; SNB-75 CNS; NCI-H522 lung; PC-3 prostate; HS 578T breast.
Holding throughout (experiment): NCI anticancer screen, dose series, 48 h

This passage reports TGI results from PubChem BioAssay (NCI).

Each structure is given as a SMILES string.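 These data come from cells grown in 96-well plates and exposed to compound for 48 hours at five concentrations. TGI denotes the concentration required for complete inhibition of growth.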

On to `CSC(=Nc1ccccc1)c1c(C)[nH]n(-c2ccccc2)c1=O`, for which the TGI with MOLT-4 leukemia, in the experiment with M14 melanoma, with SK-MEL-5 melanoma, in the experiment with NCI-H226 lung, with SNB-75 CNS and in the experiment on NCI-H522 lung was > 100 µM each time. Also, the TGI with PC-3 prostate and in the experiment with HS 578T breast was > 100 µM throughout.
In the case of `CC1=C[C@H](C[C@]2(C)c3c(c4c(C)cccc4oc3=O)O[C@@H]2C)OC1=O`, the TGI with MOLT-4 leukemia is 72.3 µM; in the experiment on M14 melanoma it was > 100 µM; in the experiment on SK-MEL-5 melanoma it was > 100 µM; in the experiment with NCI-H226 lung it was > 100 µM; in the experiment on SNB-75 CNS it was > 100 µM; in the experiment on NCI-H522 lung, 49.6 µM. Further, the TGI in the experiment on PC-3 prostate and with HS 578T breast was > 100 µM each time.
With `CC(=O)N1N=C(c2ccccc2)NC(=O)C1c1cc(C)c(O)c(C)c1` (stereo not drawn), the TGI with MOLT-4 leukemia was > 100 µM; in the experiment with M14 melanoma it was > 100 µM; in the experiment on SK-MEL-5 melanoma, 56.4 µM; in the experiment with NCI-H226 lung, 49.7 µM; with SNB-75 CNS, 37.5 µM; with NCI-H522 lung it was 37 µM. Further, the TGI in the experiment on PC-3 prostate was 79.7 µM; with HS 578T breast, > 100 µM.
Turning to `O=[N+]([O-])C1=Cc2c(O)ccc(O)c2C2OC=CC12` (stereo not drawn), the TGI was > 46.8 µM in the experiment with MOLT-4 leukemia; 34.5 µM in the experiment with M14 melanoma; 26.2 µM in the experiment on SK-MEL-5 melanoma; > 73.8 µM in the experiment with NCI-H226 lung; 49.5 µM with SNB-75 CNS; 18.1 µM with NCI-H522 lung. Also, the TGI with PC-3 prostate turned out to be 31 µM; in the experiment with HS 578T breast it was 61.6 µM.
In the case of `C/C(=N/NC(=S)N1CCCCCC1)c1cccc(/C(C)=N\NC(=S)N2CCCCCC2)n1`, the TGI in the experiment with MOLT-4 leukemia amounted to 6.34 µM; with M14 melanoma it was 3.53 µM; with SK-MEL-5 melanoma it was 2.72 µM; in the experiment with NCI-H226 lung, 3.31 µM; in the experiment with SNB-75 CNS it was 4.68 µM; in the experiment on NCI-H522 lung, 6.42 µM. For the same compound, the TGI with PC-3 prostate was determined as 5.2 µM; with HS 578T breast it was 8.82 µM.
Take `Cc1cc2c(cc1Cl)SSc1cc(Cl)c(C)cc1S(=O)(=O)Nc1nc(N)nn1C(O)n1nc(N)nc1NS2(=O)=O`: the TGI with MOLT-4 leukemia, in the experiment on M14 melanoma, in the experiment on SK-MEL-5 melanoma, in the experiment with NCI-H226 lung, in the experiment on SNB-75 CNS and in the experiment on NCI-H522 lung was > 10 µM in each case. The TGI with PC-3 prostate and in the experiment on HS 578T breast was > 10 µM in each case.
As to `COc1ccc(C2c3cc4c(cc3OC(N3CCOCC3)C2C)OCO4)cc1OC` (stereo not drawn), the TGI in the experiment on MOLT-4 leukemia is 77.9 µM; in the experiment on M14 melanoma, 52.3 µM; in the experiment with SK-MEL-5 melanoma it was > 100 µM; with NCI-H226 lung, 31.7 µM; in the experiment on SNB-75 CNS, 21.4 µM; with NCI-H522 lung it was 22.8 µM. For the same compound, the TGI is > 100 µM in the experiment on PC-3 prostate and 22.1 µM in the experiment with HS 578T breast.
Consider `CCCCCCCCCCCCCOCCOCCOCCCCC(O)CCCCCCCCCC1=C[C@H](C)OC1=O` (stereo partly drawn), for which the TGI in the experiment with MOLT-4 leukemia is 37.2 µM; in the experiment with M14 melanoma it was > 100 µM; in the experiment with SK-MEL-5 melanoma, 30.2 µM; in the experiment with NCI-H226 lung, 38 µM; in the experiment with SNB-75 CNS it was > 100 µM; in the experiment with NCI-H522 lung it was 16.7 µM. Further, the figures for the TGI with PC-3 prostate and in the experiment with HS 578T breast were 71.7 µM and 47.6 µM, respectively.
Turning to `COC(=O)/C(=C(/C)c1ccco1)P(=O)(OC)OC`, the TGI in the experiment on MOLT-4 leukemia, in the experiment on M14 melanoma, in the experiment on SK-MEL-5 melanoma, in the experiment with NCI-H226 lung, with SNB-75 CNS and with NCI-H522 lung was > 100 µM throughout. Further, the TGI in the experiment on PC-3 prostate and in the experiment with HS 578T breast was > 100 µM each time.
Take `CCCCOc1ccc(/C=C/C2=[N+](CCO)CCO2)cc1`: the TGI in the experiment on MOLT-4 leukemia was > 100 µM; in the experiment with M14 melanoma, > 100 µM; in the experiment on SK-MEL-5 melanoma, > 100 µM; with NCI-H226 lung it was 70 µM; with SNB-75 CNS, > 100 µM; in the experiment on NCI-H522 lung, > 100 µM. The TGI with PC-3 prostate and with HS 578T breast was > 100 µM in each case.
Turning to `Cc1cccc(-c2cc(=O)c3cccnc3[nH]2)c1`, the TGI with MOLT-4 leukemia is > 100 µM; with M14 melanoma it was > 100 µM; with SK-MEL-5 melanoma, 52.3 µM; in the experiment with NCI-H226 lung, > 100 µM; in the experiment on SNB-75 CNS, > 100 µM; in the experiment on NCI-H522 lung it was 8.25 µM. Further, the TGI with PC-3 prostate and in the experiment on HS 578T breast was > 100 µM each time.
Regarding `c1ccc(CCCN2C3CCC2CN(CCOC(c2ccccc2)c2ccccc2)C3)cc1`, the TGI in the experiment on MOLT-4 leukemia was determined as 25.3 µM; in the experiment on M14 melanoma, 17.3 µM; in the experiment on SK-MEL-5 melanoma it was 11.8 µM; in the experiment on NCI-H226 lung, 25.9 µM; with SNB-75 CNS, 20.8 µM; in the experiment with NCI-H522 lung, 23 µM. In addition, the values for the TGI in the experiment on PC-3 prostate and in the experiment on HS 578T breast were 19.4 µM and 33.7 µM, respectively.
For `CCOC(=O)CCCN`, the TGI with MOLT-4 leukemia, in the experiment with M14 melanoma, with SK-MEL-5 melanoma, in the experiment on NCI-H226 lung, in the experiment on SNB-75 CNS and with NCI-H522 lung was > 100 µM each time. Also, the TGI with PC-3 prostate and in the experiment with HS 578T breast was > 100 µM in each case.
`C[C@]12CCC(=O)C=C1CC[C@@H]1[C@@H]2CC[C@]2(C)C(=O)/C(=C/c3ccc([N+](=O)[O-])cc3)C[C@@H]12`: the TGI in the experiment with MOLT-4 leukemia, with M14 melanoma, in the experiment on SK-MEL-5 melanoma, in the experiment with NCI-H226 lung, in the experiment with SNB-75 CNS and in the experiment on NCI-H522 lung was > 100 µM each time. Also, the TGI in the experiment with PC-3 prostate and in the experiment with HS 578T breast was > 100 µM throughout.
On to `CC1=NN(c2ccccc2)C(=O)/C1=C1\SC(c2ccccc2)(c2ccccc2)c2ccccc21`, for which the TGI in the experiment with MOLT-4 leukemia, in the experiment with M14 melanoma, with SK-MEL-5 melanoma, with NCI-H226 lung, in the experiment on SNB-75 CNS and with NCI-H522 lung was > 100 µM throughout. The TGI with PC-3 prostate and in the experiment on HS 578T breast was > 100 µM in each case.
On to `CCOC(=O)N1CCC2(CC1)C[C@](Sc1ccccc1)(C(C)=O)[C@H](C)O2`, for which the TGI in the experiment with MOLT-4 leukemia, in the experiment with M14 melanoma, in the experiment on SK-MEL-5 melanoma, with NCI-H226 lung, in the experiment on SNB-75 CNS and with NCI-H522 lung was > 100 µM throughout. In addition, the TGI in the experiment with PC-3 prostate and in the experiment with HS 578T breast was > 100 µM throughout.
